Laboratory results as given in patent US7405228B2, “Antibacterial cyano-(substituted)-methylenepiperidinophenyl oxazolidinones targeting multiple ribonucleoprotein sites” (Wockhardt Limited, priority 2002, dated 2008).

First: CNC(=S)NC[C@H]1CN(c2ccc(N3CCC(=CC#N)CC3)c(F)c2)C(=O)O1 [Example 52, (S)-N-{3-[4-(4-cyanomethylidene-piperidin-1-yl)-3-fluorophenyl]-2-oxo-oxazolidin-5-ylmethyl}-methylthiocarbamide]
Second: N#CC=C1CCN(c2ccc(N3C[C@H](CNC(=S)NCCO)OC3=O)cc2F)CC1 [Example 48, (S)-N-{3-[4-(4-cyanomethylidene-piperidin-1-yl)-3-fluorophenyl]-2-oxo-oxazolidin-5-ylmethyl}-2-hydroxyethylthiocarbamide]
The melting point of the first is higher: 191 to 192 °C for the first, 168 to 170 °C for the second.

First: CC(C)COC(=O)NC[C@H]1CN(c2ccc(N3CC=C(CC#N)C(F)C3)c(F)c2)C(=O)O1 (stereo partly drawn) [Example 163, (S)-N-{3-[4-(4-cyanomethyl-3-fluoro-4,5-dehydropiperidin-1-yl)-3-fluorophenyl]-2-oxo-oxazolidin-5-ylmethyl}-isobutylcarbamate]
Second: CC(C#N)=C1CCN(c2ccc(N3C[C@H](CNC(=O)OCC(C)C)OC3=O)cc2F)CC1 [Example 81, (S)-N-{3-[4-(4-(1-cyanoethylidene)-piperidin-1-yl)-3-fluorophenyl]-2-oxo-oxazolidin-5-ylmethyl}-isobutylcarbamate]
The melting point of the first is lower: 146 to 148 °C for the first, 158 to 160 °C for the second.

Compared with `CS(=O)(=O)OC[C@H]1CN(c2ccc(N3CCC(CC#N)CC3)cc2)C(=O)O1` [Example 125, (R)-{3-[4-(4-cyanomethyl-piperidin-1-yl)-phenyl]-2-oxo-oxazolidin-5-ylmethyl}-methanesulphonate], `CS(=O)(=O)OC[C@H]1CN(c2ccc(N3CCC(=CC#N)CC3)cc2)C(=O)O1` [Example 6, (R)-{3-[4-(4-cyanomethylidene-piperidin-1-yl)-phenyl]-2-oxo-oxazolidin-5-ylmethyl}-methanesulphonate] is higher in melting point: 114 to 116 °C for the first, 120 to 122 °C for the second.

Compared with `N#CC=C1CCN(c2ccc(N3CC(Cn4cc(C#N)nn4)OC3=O)cc2)CC1` (stereo in doubt) [Example 5, (S)-1-{3-[4-(4-cyanomethylidene-piperidin-1-yl)-phenyl]-2-oxo-oxazolidin-5-ylmethyl}-4-cyano-1,2,3-triazole], `N#CC=C1CCN(c2ccc(N3CC(Cn4cc(C#N)nn4)OC3=O)cc2F)CC1` (stereo in doubt) [Example 28, (S)-1-{3-[4-(4-cyanomethylidene-piperidin-1-yl)-3-fluorophenyl]-2-oxo-oxazolidin-5-ylmethyl}-4-cyano-1,2,3-triazole] is lower in melting point: 186 to 188 °C for the first, 78 to 80 °C for the second.

First: CS(=O)(=O)OC[C@H]1CN(c2ccc(N3CCC(C(C#N)c4nccs4)CC3)c(F)c2)C(=O)O1 (stereo partly drawn) [Example 157, (R)-{3-[4-(4-(1-cyano-1-(1,3-thiazol-2-yl))-methylpiperidin-1-yl)-3-fluorophenyl]-2-oxo-oxazolidin-5-ylmethyl}-methanesulphonate]
Second: CS(=O)(=O)OC[C@H]1CN(c2ccc(N3CC/C(=C\C#N)C(F)C3)c(F)c2)C(=O)O1 (stereo partly drawn) [Example 59, (R)-{3-[4-(4-cyanomethylidene-3-fluoropiperidin-1-yl)-3-fluorophenyl]-2-oxo-oxazolidin-5-ylmethyl}-methanesulphonate]
The melting point of the first is lower: 64 to 66 °C for the first, 116 to 118 °C for the second.

`N#CC=C1CCN(c2ccc(N3C[C@H](CN4C(=O)c5ccccc5C4=O)OC3=O)cc2F)CC1` [Example 44, (S)-N-{3-[4-(4-cyanomethylidene-piperidin-1-yl)-3-fluorophenyl]-2-oxo-oxazolidin-5-ylmethyl}-1-pthalamide] and `N#CC=C1CCN(c2ccc(N3C[C@H](CNC=O)OC3=O)cc2F)CC1` [Example 8, (S)-N-{3-[4-(4-cyanomethylidene-piperidin-1-yl)-3-fluorophenyl]-2-oxo-oxazolidin-5-ylmethyl}-formamide] cannot be ordered by melting point: 183 to 185 °C for the first, 183 to 184 °C for the second.

Compared with `CCOC(=O)c1cnnn1CC1CN(c2ccc(N3CCC(=CC#N)CC3)c(F)c2)C(=O)O1` (stereo in doubt) [Example 27, (S)-1-{3-[4-(4-cyanomethylidene-piperidin-1-yl)-3-fluorophenyl]-2-oxo-oxazolidin-5-ylmethyl}-5-carboethoxy-1,2,3-triazole], `CCOC(=O)c1cnnn1C[C@H]1CN(c2ccc(N3CCC(C(C#N)CO)CC3)c(F)c2)C(=O)O1` (stereo partly drawn) [Example 152, (S)-1-{3-[4-(4-(1-cyano-2-hydroxy)-ethylpiperidin-1-yl)-3-fluorophenyl]-2-oxo-oxazolidin-5-ylmethyl}-5-ethoxycarbonyl-1,2,3-triazole] is higher in melting point: 70 to 72 °C for the first, 76 to 78 °C for the second.

First: CCC(C#N)=C1CCN(c2ccc(N3C[C@H](CNC(=O)CBr)OC3=O)cc2F)CC1 [Example 92, (S)-N-{3-[4-(4-(1-cyanopropylidene)-piperidin-1-yl)-3-fluorophenyl]-2-oxo-oxazolidin-5-ylmethyl}-bromoacetamide]
Second: CC(C#N)=C1CCN(c2ccc(N3C[C@H](CNC(=O)CN)OC3=O)cc2F)CC1 [Example 76, (S)-N-{3-[4-(4-(1-cyanoethylidene)-piperidin-1-yl)-3-fluorophenyl]-2-oxo-oxazolidin-5-ylmethylamino}-carboxymethylamine]
The melting point of the first is higher: 200 to 203 °C for the first, 141 to 142 °C for the second.

Compared with `N#CC=C1CCN(c2ccc(N3C[C@H](CNC(=O)C(Cl)(Cl)Cl)OC3=O)cc2F)CC1` [Example 33, (S)-N-{3-[4-(4-cyanomethylidene-piperidin-1-yl)-3-fluorophenyl]-2-oxo-oxazolidin-5-ylmethyl}-trichloroacetamide], `N#CC=C1CCN(c2ccc(N3C[C@H](CNC(=O)C(N)CO)OC3=O)cc2F)CC1` (stereo partly drawn) [Example 42, (2S, 5S)-{N-{3-[4-(4-cyanomethylidene-piperidin-1-yl)-3-fluorophenyl]-2-oxo-oxazolidin-5-ylmethyl}-3-hydroxypropionamid-2-yl}-amine] is lower in melting point: 142 to 144 °C for the first, 88 to 90 °C for the second.

First: CC(=O)NC[C@H]1CN(c2ccc(N3CCC(=C(C#N)n4ccnc4C)CC3)c(F)c2)C(=O)O1 [Example 103, (S)-N-{3-[4-(4-(1-cyano-1-(2-methyl-imidazol-1-yl)-methylidene)-piperidin-1-yl)-3-fluorophenyl]-2-oxo-oxazolidin-5-ylmethyl}-acetamide]
Second: CC(=O)NC[C@H]1CN(c2ccc(N3CCC(=C(C#N)n4cncn4)CC3)c(F)c2)C(=O)O1 [Example 104, (S)-N-{3-[4-(4-(1-cyano-1-(1,2,4-triazol-1-yl)-methylidene)-piperidin-1-yl)-3fluorophenyl]-2-oxo-oxazolidin-5-ylmethyl}-acetamide]
The melting point of the first is higher: 204 to 206 °C for the first, 194 to 196 °C for the second.

First: N#CC=C1CCN(c2ccc(N3C[C@H](CNC(=O)C4CCCN4)OC3=O)cc2F)CC1 (stereo in doubt) [Example 25, (S)-N-{3-[4-(4-cyanomethylidene-piperidin-1-yl)-3-fluorophenyl]-2-oxo-oxazolidin-5-ylmethyl}-pyrrolidin-2-carboxamide]
Second: N#CC=C1CCN(c2ccc(N3C[C@H](CNC(=O)[C@@H](N)Cc4c[nH]cn4)OC3=O)cc2F)CC1 [Example 43, (2S, 5S){N-{3-[4-(4-cyanomethylidene-piperidin-1-yl)-3-fluorophenyl]-2-oxo-oxazolidin-5-ylmethyl}-3-(imidazol-4-yl)-propionamid-2-yl}-amine]
The melting point of the first is higher: 155 °C for the first, 93 to 96 °C for the second.

Compared with `CC1CN(c2ccc(N3C[C@H](CNC(=O)CC#N)OC3=O)cc2F)CC/C1=C\C#N` (stereo partly drawn) [Example 65, (S)-N-{3-[4-(4-cyanomethylidene-3-methylpiperidin-1-yl)-3-fluorophenyl]-2-oxo-oxazolidin-5-ylmethyl}-2-cyanoacetamide], `CC1CN(c2ccc(N3C[C@H](CNC=O)OC3=O)cc2F)CC/C1=C\C#N` (stereo partly drawn) [Example 62, (S)-N-{3-[4-(4-cyanomethylidene-3-methylpiperidin-1-yl)-3-fluorophenyl]-2-oxo-oxazolidin-5-ylmethyl}-formamide] is lower in melting point: 102 to 104 °C for the first, 98 to 100 °C for the second.

First: CCOC(=O)c1cn(CC2CN(c3ccc(N4CCC(CC#N)CC4)cc3)C(=O)O2)nn1 (stereo in doubt) [Example 123, (S)-1-{3-[4-(4-cyanomethyl-piperidin-1-yl)-phenyl]-2-oxo-oxazolidin-5-ylmethyl}-4-carboethoxy-1,2,3-triazole]
Second: N#CCC1CCN(c2ccc(N3CC(Cn4cc(C(N)=O)nn4)OC3=O)cc2F)CC1 (stereo in doubt) [Example 127, (S)-1-{3-[4-(4-cyanomethyl-piperidin-1-yl)-3-fluorophenyl]-2-oxo-oxazolidin-5-ylmethyl}-4-carboxamido-1,2,3-triazole]
The melting point of the first is lower: 198 to 200 °C for the first, 248 to 250 °C for the second.

First: COC(=O)c1cn(C[C@H]2CN(c3ccc(N4CCC(C(C#N)CO)CC4)c(F)c3)C(=O)O2)nn1 (stereo partly drawn) [Example 150, (S)-1-{3-[4-(4-(1-cyano-2-hydroxy)-ethylpiperidin-1-yl)-3-fluorophenyl]-2-oxo-oxazolidin-5-ylmethyl}-4-methoxycarbonyl-1,2,3-triazole]
Second: CC(C#N)=C1CCN(c2ccc(N3C[C@H](CNC(=O)CC#N)OC3=O)cc2F)CC1 [Example 75, (S)-N-{3-[4-(4-(1-cyanoethylidene)-piperidin-1-yl)-3-fluorophenyl]-2-oxo-oxazolidin-5-ylmethyl}-2-cyanoacetamide]
The melting point of the first is higher: 204 to 206 °C for the first, 194 to 196 °C for the second.

Compared with `CC(C#N)=C1CCN(c2ccc(N3C[C@H](CNC=O)OC3=O)cc2F)CC1` [Example 73, (S)-N-{3-[4-(4-(1-cyanoethylidene)-piperidin-1-yl)-3-fluorophenyl]-2-oxo-oxazolidin-5-ylmethyl}-formamide], `CC(=O)NC[C@H]1CN(c2ccc(N3CC/C(=C(\C)C#N)C(F)C3)c(F)c2)C(=O)O1` (stereo partly drawn) [Example 87, Z-(S)-N-{3-[4-(4-(1-cyanoethylidene)-3-fluoropiperidin-1-yl)-3-fluorophenyl]-2-oxo-oxazolidin-5-ylmethyl}-acetamide] is lower in melting point: 188 to 190 °C for the first, 148 to 150 °C for the second.

Compound `C=CCN(C#N)C[C@H]1CN(c2ccc(N3CCC(=CC#N)CC3)c(F)c2)C(=O)O1` [Example 22, (S)-{N-{3-[4-(4-cyanomethylidene-piperidin-1-yl)-3-fluorophenyl]-2-oxo-oxazolidin-5-ylmethylamino}N-cyano}-prop-2-ene] has a melting point of 111 to 113 °C.
